Experimental data published in ChEMBL document CHEMBL5523682, “The formyl peptide receptors FPR1 and FPR2 as targets for inflammatory disorders: recent advances in the development of small-molecule agonists” (Eur J Med Chem, 2024).
One block for each compound: values may come before it. Where a SMILES comes first, the peptide text is derived from it. The star is where a group is joined. For = O=C*

Columns and labels:
[1] = target: T1, fMet-Leu-Phe receptor (Homo sapiens, UniProt P21462); assay: Agonist activity at human FPR1 expressed in HL-60 cells assessed as increase in calcium mobilization by FLIPR analysis; type: functional, cell-based
T1 sequence (P21462 whole entry): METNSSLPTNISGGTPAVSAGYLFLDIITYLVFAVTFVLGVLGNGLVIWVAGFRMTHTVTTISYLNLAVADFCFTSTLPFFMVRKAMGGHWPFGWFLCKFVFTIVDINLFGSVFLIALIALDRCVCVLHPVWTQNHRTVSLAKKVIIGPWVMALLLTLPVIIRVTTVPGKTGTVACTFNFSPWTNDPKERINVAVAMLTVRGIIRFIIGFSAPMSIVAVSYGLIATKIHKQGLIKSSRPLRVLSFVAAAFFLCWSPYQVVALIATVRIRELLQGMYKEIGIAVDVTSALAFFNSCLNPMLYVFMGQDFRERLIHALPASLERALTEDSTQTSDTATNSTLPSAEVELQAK

[2] = target: T2, N-formyl peptide receptor 2 (Homo sapiens, UniProt P25090); assay: Agonist activity at human FPR2 expressed in HL-60 cells assessed as increase in calcium mobilization by FLIPR analysis; type: functional, cell-based
T2 sequence (P25090 whole entry): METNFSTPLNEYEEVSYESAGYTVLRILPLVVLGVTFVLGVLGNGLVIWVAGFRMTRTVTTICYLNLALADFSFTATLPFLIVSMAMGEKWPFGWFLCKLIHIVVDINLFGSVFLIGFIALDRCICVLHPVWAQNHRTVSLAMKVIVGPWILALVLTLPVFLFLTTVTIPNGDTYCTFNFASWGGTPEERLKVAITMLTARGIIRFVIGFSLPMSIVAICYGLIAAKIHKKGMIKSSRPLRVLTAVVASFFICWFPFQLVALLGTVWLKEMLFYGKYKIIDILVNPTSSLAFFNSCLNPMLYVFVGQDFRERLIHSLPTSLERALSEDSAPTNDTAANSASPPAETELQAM

[3] = target: T2, N-formyl peptide receptor 2; assay: Agonist activity at FPR2 (unknown origin) in HEK293 cells; type: functional, cell-based
[4] = species: Homo sapiens; assay: Selectivity ratio of EC50 for agonist activity at human FPR1 transfected in CHO cells to EC50 for agonist activity at human FPR2 transfected in CHO cells; type: cell-based
[5] = target: T2, N-formyl peptide receptor 2; assay: Agonist activity at FPR2 (unknown origin) expressed in CHO cells by cAMP assay; type: functional, cell-based
[6] = target: T1, fMet-Leu-Phe receptor; assay: Agonist activity at FPR1 (unknown origin) in HEK293 cells; type: functional, cell-based
[7] = target: T1, fMet-Leu-Phe receptor; assay: Agonist activity at FPR1 (unknown origin) expressed in CHO cells by cAMP assay; type: functional, cell-based
[8] = target: T3, fMet-Leu-Phe receptor (Mus musculus, UniProt P33766); assay: Agonist activity at mouse FPR1; type: functional
T3 sequence (P33766 whole entry): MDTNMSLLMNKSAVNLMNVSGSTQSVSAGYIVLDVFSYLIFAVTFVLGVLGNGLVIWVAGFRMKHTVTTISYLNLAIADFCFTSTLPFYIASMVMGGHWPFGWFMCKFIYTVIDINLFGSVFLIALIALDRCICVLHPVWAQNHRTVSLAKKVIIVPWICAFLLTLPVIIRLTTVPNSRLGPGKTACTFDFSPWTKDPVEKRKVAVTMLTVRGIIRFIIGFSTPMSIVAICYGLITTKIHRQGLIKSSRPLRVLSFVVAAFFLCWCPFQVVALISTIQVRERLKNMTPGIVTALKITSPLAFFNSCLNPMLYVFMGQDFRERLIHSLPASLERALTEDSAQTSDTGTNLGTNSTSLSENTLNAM

[9] = target: T4, Formyl peptide receptor 2 (Mus musculus, UniProt O88536); assay: Agonist activity at mouse FPR2
T4 sequence (O88536 whole entry): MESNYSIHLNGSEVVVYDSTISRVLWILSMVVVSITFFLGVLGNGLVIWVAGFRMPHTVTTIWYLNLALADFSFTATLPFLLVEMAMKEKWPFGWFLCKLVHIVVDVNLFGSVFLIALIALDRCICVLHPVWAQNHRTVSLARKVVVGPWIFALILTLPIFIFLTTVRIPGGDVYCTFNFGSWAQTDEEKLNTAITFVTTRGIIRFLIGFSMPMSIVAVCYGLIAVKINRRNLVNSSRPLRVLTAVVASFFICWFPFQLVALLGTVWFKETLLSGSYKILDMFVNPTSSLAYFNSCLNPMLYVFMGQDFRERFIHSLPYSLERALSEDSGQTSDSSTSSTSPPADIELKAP

[10] = target: T1, fMet-Leu-Phe receptor; assay: Agonist activity at human FPR1 transfected in CHO cells by cAMP assay; type: functional, cell-based
[11] = target: T2, N-formyl peptide receptor 2; assay: Agonist activity at human FPR2 expressed in HL-60 cells assessed as inhibition of WKYMVM-induced calcium mobilization; type: functional, cell-based
[12] = target: T2, N-formyl peptide receptor 2; assay: Agonist activity at FPR2 (unknown origin) transfected in CHO cells by cAMP assay; type: functional, cell-based

EC50 [1]: 3300 nM
EC50 [2]: 2400 nM
Structure (SMILES): CCCc1cn(-c2cccc(OC)c2)c(=O)n(CC(=O)Nc2ccc(Br)cc2)c1=O

EC50 [3]: 0.07 nM
Structure (SMILES): O=C(NCCCCN1CCCCC1)[C@@H]1C2CCC([C@H]1C(=O)Nc1ccc(Br)cc1)C21CC1 (stereo partly specified)

Structure (SMILES): N#Cc1ccccc1-c1ccc(N2CC[C@@H](NC(=O)Nc3ccc(Cl)cc3F)C2=O)c(F)c1F
Ratio EC50 [4]: 14

EC50 [5]: 5 nM
Structure (SMILES): NC(=O)c1ccccc1-c1ccc(N2CCC[C@H](NC(=O)Nc3ccc(Cl)cc3)C2=O)cc1

EC50 [3]: 2600 nM
Structure (SMILES): CCC(Nc1ccc(OC)cc1)C(=O)N/N=C(C)/C=C/c1ccccc1 (stereo unspecified)

EC50 [1]: 300 nM
Structure (SMILES): COc1ccc(C2(CNC(=O)[C@](C)(Cc3c[nH]c4ccccc34)NC(=O)Nc3ccc([N+](=O)[O-])cc3)CCCCC2)nc1

Structure (SMILES): COc1cccc(-n2c(=O)c(NC(=O)c3ccc(OC(F)F)cc3)c(-c3c(F)cc(OC)cc3F)n2C)c1
Ratio EC50 [4]: 0.6

EC50 [6]: 200 nM
EC50 [3]: 4 nM
Structure (SMILES): COc1cc(F)c(-n2c(-c3ccccc3)cnc2NC(=O)c2ccc(OC(F)F)cc2)c(F)c1

EC50 [5]: < 1 nM
EC50 [7]: 1000 nM
Structure (SMILES): COc1cc(F)c([C@H]2CC(=O)NC[C@@H]2NC(=O)Nc2ccc(Cl)cc2)c(F)c1 (racemic)

EC50 [1]: 20000 nM
EC50 [2]: 11000 nM
Structure (SMILES): C[C@H]1CC(c2ccccc2)=NN(CC(=O)Nc2ccc(Br)cc2)C1=O

EC50 [8]: 350 nM
EC50 [9]: 890 nM
Structure (SMILES): CC(C)c1c(NC(=O)Nc2ccc(Cl)cc2)c(=O)n(-c2ccccc2)n1C

Structure (SMILES): CS(=O)(=O)Nc1ccccc1-c1ccc(N2CC[C@@H](NC(=O)Nc3ccc(Cl)cc3F)C2=O)c(F)c1F
Ratio EC50 [4]: 340

Structure (SMILES): COc1cc(F)c(-c2c(NC(=O)c3ccc(OC(F)F)cc3)c(=O)n(-c3cccc(-n4ccc(C)n4)n3)n2C)c(F)c1
Ratio EC50 [4]: 1

EC50 [9]: 15 nM
Structure (SMILES): CSc1ccc(NC(=O)Nc2ccc3c(c2)C(=O)N(CCCN)C(C)C3)cc1 (stereo unspecified)

EC50 [10]: 10 nM
Structure (SMILES): COc1cc(OC)cc(-n2c(=O)c(NC(=O)c3ccc(OC(F)F)cc3)c(-c3c(F)cc(OC)cc3F)n2C)c1
Ratio EC50 [4]: 3400

Structure (SMILES): COc1cc(F)c(-c2c(NC(=O)c3ccc(OC(F)F)cc3)c(=O)n(-c3cccc(OC(F)F)c3)n2C)c(F)c1
Ratio EC50 [4]: 1

EC50 [10]: > 10000 nM
Structure (SMILES): COc1cc(C2CCNCC2)nc(-n2c(=O)c(NC(=O)c3ccc(OC(F)F)cc3)c(-c3c(F)cc(OC)cc3F)n2C)c1

Structure (SMILES): CCP(=O)(CC)c1ccccc1-c1ccc(N2CC[C@@H](NC(=O)Nc3ccc(Cl)cc3F)C2=O)c(F)c1F
Ratio EC50 [4]: 350

EC50 [11]: 6.9 nM
Structure (SMILES): CC[C@H](C)[C@H](NC(=O)[C@H](CC(N)=O)NC(=O)[C@@H](NC(=O)[C@H](CCSC)NC=O)[C@@H](C)O)C(=O)N[C@@H](CCCNC(=N)N)C(=O)N[C@@H](CCCCN)C(=O)N[C@@H](CO)C(=O)N[C@@H](Cc1cnc[nH]1)C(=O)N1CCC[C@H]1C(=O)N[C@@H](CC(C)C)C(=O)N[C@@H](CCSC)C(=O)N[C@@H](CCCCN)C(=O)N[C@H](C(=O)N[C@H](C(=O)N[C@@H](CC(N)=O)C(=O)O)[C@@H](C)CC)[C@@H](C)CC (For-MTNIRKSHPLMKIIN-OH)

Structure (SMILES): O=C(Nc1ccc(Cl)cc1F)N[C@@H]1CCN(c2ccc(-c3ccccc3F)c(F)c2F)C1=O
Ratio EC50 [4]: 12

EC50 ([1]; hl-60): 1600 nM
EC50 ([2]; hl-60): 120 nM
Structure (SMILES): COc1cccc(-c2cc(C#N)c(=O)n(CC(=O)Nc3ccc(Br)cc3)c2C)c1

EC50 [12]: 120 nM
Structure (SMILES): O=C(CN1C(=O)C2C(C1=O)C1CCC2C12CC2)Nc1ccc(Br)cc1 (stereo unspecified)

Structure (SMILES): COC(=O)c1cccc(-n2c(=O)c(NC(=O)c3ccc(OC(F)F)cc3)c(-c3c(F)cc(OC)cc3F)n2C)c1
Ratio EC50 [4]: 1

EC50 [1]: 23 nM
Structure (SMILES): COc1ccc(C2(CNC(=O)[C@@H](Cc3c[nH]c4ccccc34)NC(=O)Nc3ccc([N+](=O)[O-])cc3)CCCCC2)nc1

EC50 [1]: 24000 nM
EC50 [2]: 10000 nM
Structure (SMILES): C[C@@H]1CC(c2ccccc2)=NN(CC(=O)Nc2ccc(Br)cc2)C1=O

EC50 [3]: 2100 nM
Structure (SMILES): O=C(CN1CCN(c2ccc(Cl)cc2)CC1)Nc1ccc(Br)cc1

Structure (SMILES): CS(=N)(=O)c1ccccc1-c1ccc(N2CC[C@@H](NC(=O)Nc3ccc(Cl)cc3F)C2=O)c(F)c1F (stereo partly specified)
Ratio EC50 [4]: 82

EC50 [3]: 0.4 nM
Structure (SMILES): O=C(Nc1ccc(Br)nc1)[C@@H]1C2CCC([C@H]1C(=O)OCCC1CCNCC1)C21CC1 (stereo partly specified)
